Test: Solubility of methyleneadamantane in organic compound
Assay type: physicochemical
Conditions: supernatant analysed by gas chromatography
Description: To a predetermined amount of an organic solvent was added 2-methyleneadamantane in such an amount that it remains in the solvent after dissolution. After stirring the mixture while keeping the temperature at 0° C., the resulting mixture was allowed to stand. A supernatant was collected therefrom and its composition was analyzed by gas chromatography.
The solubility of 2-methyleneadamantane and the amount of 2-methyleneadamantane in the reaction product were measured by gas chromatography analysis described below. • Gas chromatography analyzer: “GC-14B”, product of Shimadzu Corporation • Column: “TC-1”, product of Tokyo Chemical Industry (inner diameter: 0.25 mm, thickness of filler: 0.25 μm, length: 60 m) • Feed port temperature: 150° C. • Detector: FID • Detector temperature: 280° C. • Conditions of column oven: The column oven was retained at 100° C. for 3 minutes, heated to 180° C. at 10° C./min, retained at 180° C. for 5 minutes, heated to 280° C. at 10° C./min, and then retained at 280° C. for 5 minutes.

solubility of methyleneadamantane in 100 g of n-undecane at 0° C.: 101 g
Structure (SMILES): C=C1C2CC3CC(C2)CC1C3 [methyleneadamantane, 2-methyleneadamantane]

Reference: patent publication US20080051597A1, “Process for Producing 2-Methyladamantan-2-Yl (Meth)Acrylate and 2-Methyladamantan-2-Yl (Meth)Acrylate” (Mitsubishi Chemical Corporation, priority 2004, published 2008)
